Assays:
[1] = type: in vitro ADME; conditions: extraction ratio, compound at 1 uM
SARS-CoV-2 = assay: Anti-viral in vitro PRNT assay in Vero E6 cells; type: cell-based; conditions: Severe acute respiratory syndrome coronavirus 2, Vero C1008, 72 h; Vero E6 cells, 1000 pfu, 3 days, plaque reduction; read-out: anti-SARS-CoV2 (PRNT) in Vero E6 EC50
in vivo [2] = conditions: female, beagle, dog, po, 40 mg/kg
Protocol: Pharmacokinetics of test compounds was evaluated following an oral administration of a single dose (at 40 mg/kg) to female Beagle dogs.
Procedure: Test compounds were orally administered to beagle dogs (single dose). The target dose level for oral administration was 40 mg/kg. Blood samples were collected at pre-dose, and at 0.083, 0.25, 0.50, 1, 2, 4, 6, 8, and 24 hours post-dose. Concentrations of test compound were determined by an LC-MS/MS. Non-compartmental Pharmacokinetic parameters of test compounds were analyzed using Phoenix WinNonlin 8.3.
Animal Dosing: All animals were fasted ˜17-19 h prior to dosing and fed approximately 4 hours after dosing. […] The dogs were dosed at 10.0 ml/kg. The formulation volume of the test compound administered to each animal was calculated based on the body weight measured on the day of dosing.
Sample Collection and Analysis: Approximately 1 mL of blood was collected by jugular vein puncture into tubes containing EDTA-K2 anticoagulant. Plasma samples were harvested by centrifugation (2000 g for 10 minutes at 4° C. within 2 hours after collection) and stored at −80° C. until analysis. The analytical method for test compound involved protein precipitation by adding acetonitrile containing 1% FA and internal standard (A-1-a synthesized in house or Tolbutamide purchased from Sigma), and final analysis by LC-MS/MS. A standard curve was prepared using dog plasma for the test article. The calibration curve was linear over a concentration range of 1.0 to 1000 ng/mL.
(§1) Pharmacokinetic and Statistic Analysis: The reported plasma concentrations of test compounds were used to determine pharmacokinetic parameters, using a non-compartmental model for data analysis (Phoenix WinNonlin 8.3). The common pharmacokinetic parameters were calculated, whenever possible, from the plasma concentration-versus-time data. Nominal doses and sampling times were used, except where deviations were noted. […] BQL after Tmax would not participate in calculation of PK parameters.

in vivo [3] = conditions: female, Balb/c, mouse, po, 40 mg/kg
Protocol: Pharmacokinetics of test compounds was evaluated following an oral administration of a single dose (at 40 mg/kg) to female Balb/c mice.
Procedure: Test compounds were administered to Balb/c mice (n=3 per sex per time point) by a single oral gavage. The target dose level for oral administration was 40 mg/kg. Blood samples were collected at pre-dose, and at 0.083, 0.25, 0.50, 1, 2, 4, 6, 8, and 12 hours post-dose. Concentrations of test compound were determined by an LC-MS/MS. Non-compartmental Pharmacokinetic parameters of test compounds were analyzed using Phoenix WinNonlin 8.3.
Animal Dosing: All animals were fasted overnight through approximately 4 hours post-dose. Tap water was provided to mice ad Libitum. The mice were dosed orally at 10.0 ml/kg. The formulation volume of the test compound administered to each animal was calculated based on the body weight measured on the day of dosing.
Sample Collection and Analysis: Approximately 0.20 mL of blood was collected via orbital sinus vein puncture into EDTA-K2 tubes. Plasma samples were harvested by centrifugation and stored at −80° C. until analysis. The analytical method for test compound involved protein precipitation by adding acetonitrile containing 1% FA and internal standard (A-1-a synthesized in house or Tolbutamide purchased from Sigma), and final analysis by LC-MS/MS. A standard curve was prepared using mouse plasma for the test compound. The calibration curve was linear over a concentration range of 1.0 to 1000 ng/mL.
as §1

SARS-CoV-2 Omicron [4] = assay: FRNT assay in Vero E6 cells; type: cell-based; conditions: Severe acute respiratory syndrome coronavirus 2, Vero C1008, 24 h
SARS-CoV-2 Omicron [5] = assay: Virus release assay using EpiAirway; type: cell-based; conditions: Severe acute respiratory syndrome coronavirus 2
SARS-CoV-2 Omicron [6] = assay: FRNT assay in A549-hACE2 cells; type: cell-based; conditions: Severe acute respiratory syndrome coronavirus 2, 24 h
[7] = type: in vitro ADME, Human; conditions: extraction ratio, compound at 1 uM, human liver microsomes 0.5 mg/mL

## CC(C)C[C@H](NC(=O)c1cc2ccccc2[nH]1)C(=O)N[C@@H](C[C@@H]1CCNC1=O)C(O)S(=O)(=O)[O-].[Na+] (stereo partly drawn) [Compound A-1-d, sodium (2S)-2-((S)-2-(1H-indole-2-carboxamido)-4-methylpentanamido)-1-hydroxy-3-((S)-2-oxopyrrolidin-3-yl)propane-1-sulfonate]
[1]; SD rat liver microsomes 0.5 mg/mL
  Liver Microsomal Stability (ER) SD rat: 0.12
[1]; beagle dog liver microsomes 0.5 mg/mL
  Liver Microsomal Stability (ER) Beagle dog: 0.04
[1]; mouse liver microsomes 0.5 mg/mL
  Liver Microsomal Stability (ER) Mouse: 0.10
SARS-CoV-2
  EC50: 1060 nM
In vivo [2]
  AUC0-t: 95900 ng·h/mL
  Cmax: 27800 ng/mL
  Tmax: 2 h
  bioavailability: > 83%
  half-life: 2.73 h
In vivo [3]
  AUC0-t: 2620 ng·h/mL
  Cmax: 1610 ng/mL
  Tmax: 0.5 h
  half-life: 0.893 h
SARS-CoV-2 Omicron [4]
  EC50: 360 nM
  EC90: 410 nM
SARS-CoV-2 Omicron [5]
  EC50: 12 to 41 nM
  EC90: 12 to 41 nM
SARS-CoV-2 Omicron [6]
  EC50: 130 nM
  EC90: 280 nM
[7]
  Liver Microsomal Stability (ER) Human: 0.08
